Legend:
BT-474 Tam1 [1] = assay: drug sensitivity score (DSS) (DSS (dimensionless)); higher = more sensitive; extreme values may be limits of the assay; details: 4-OH-tamoxifen in medium 1 µM; 72 h
Description: (§1)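 FIMM FO2B library drugs were tested at 5 concentrations (10,000-fold range) for 72 h, with CellTiter-Glo viability normalised to DMSO and benzethonium chloride controls. The Drug Sensitivity Score (DSS) is computed from the fitted logistic dose-response curve (area-based; 0 = inactive). Resistant lines and the 'in 1µM tamoxifen' arms were tested in 1 µM 4-OH-tamoxifen.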

BT-474 Tam2 [2] = assay: as above; details: 4-OH-tamoxifen in medium 1 µM; 72 h
Description: as §1

BT-474 [3] = assay: as above; details: 72 h
Description: as §1

MCF-7 Tam1 [4] = assay: as above; details: 4-OH-tamoxifen in medium 1 µM; 72 h
Description: as §1

MCF-7 [5] = assay: as above; details: 72 h
Description: as §1

T-47D Tam1 [6] = assay: as above; details: 4-OH-tamoxifen in medium 1 µM; 72 h
Description: as §1

T-47D Tam2 = assay: as above; details: 4-OH-tamoxifen in medium 1 µM; 72 h
Description: as §1

T-47D [7] = assay: as above; details: 72 h
Description: as §1

ZR-75-1 Tam1 [8] = assay: as above; details: 4-OH-tamoxifen in medium 1 µM; 72 h
Description: as §1

ZR-75-1 Tam2 [9] = assay: as above; details: 4-OH-tamoxifen in medium 1 µM; 72 h
Description: as §1

ZR-75-1 [10] = assay: as above; details: 72 h
Description: as §1

BT-474 Tam1 [11] = assay: relative IC50 (midpoint of fitted logistic curve, plateau may be below 50% inhibition; CellTiter-Glo viability); higher = less potent; details: 4-OH-tamoxifen in medium 1 µM; 72 h
Description: (§2)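 FIMM FO2B library drugs were plated at 5 concentrations spanning a 10,000-fold range in 384-well plates. Cells were incubated for 72 h at 37 °C and viability was read by CellTiter-Glo, normalised to DMSO (0% inhibition) and 100 µM benzethonium chloride (100% inhibition). IC50 values come from logistic dose-response fits (Breeze pipeline). Tamoxifen-resistant lines and the 'in 1µM tamoxifen' parental arms were tested in medium with 1 µM 4-OH-tamoxifen.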

BT-474 Tam2 [12] = assay: as above; details: 4-OH-tamoxifen in medium 1 µM; 72 h
Description: as §2

BT-474 [13] = assay: as above; details: 72 h
Description: as §2

MCF-7 Tam1 [14] = assay: as above; details: 4-OH-tamoxifen in medium 1 µM; 72 h
Description: as §2

MCF-7 [15] = assay: as above; details: 72 h
Description: as §2

T-47D Tam1 [16] = assay: as above; details: 4-OH-tamoxifen in medium 1 µM; 72 h
Description: as §2

T-47D [17] = assay: as above; details: 72 h
Description: as §2

ZR-75-1 Tam1 [18] = assay: as above; details: 4-OH-tamoxifen in medium 1 µM; 72 h
Description: as §2

ZR-75-1 Tam2 [19] = assay: as above; details: 4-OH-tamoxifen in medium 1 µM; 72 h
Description: as §2

ZR-75-1 [20] = assay: as above; details: 72 h
Description: as §2

O=P1(N(CCCl)CCCl)NCCCO1 (stereo unspecified) [Clafen (Cyclophosphamide, Endoxan)]
0: drug sensitivity score (BT-474 Tam1 [1]) | drug sensitivity score (BT-474 Tam2 [2]) | drug sensitivity score (BT-474 [3]; 4-OH-tamoxifen in medium 0 µM) | drug sensitivity score (BT-474 [3]; 4-OH-tamoxifen in medium 1 µM) | drug sensitivity score (MCF-7 Tam1 [4]) | drug sensitivity score (MCF-7 [5]; 4-OH-tamoxifen in medium 0 µM) | drug sensitivity score (T-47D Tam1 [6]) | drug sensitivity score (T-47D [7]; 4-OH-tamoxifen in medium 0 µM) | drug sensitivity score (T-47D [7]; 4-OH-tamoxifen in medium 1 µM) | drug sensitivity score (ZR-75-1 Tam1 [8]) | drug sensitivity score (ZR-75-1 Tam2 [9]) | drug sensitivity score (ZR-75-1 [10]; 4-OH-tamoxifen in medium 0 µM) | drug sensitivity score (ZR-75-1 [10]; 4-OH-tamoxifen in medium 1 µM)
> 40 µM: relative IC50 (BT-474 Tam1 [11]) | relative IC50 (BT-474 Tam2 [12]) | relative IC50 (BT-474 [13]; 4-OH-tamoxifen in medium 0 µM) | relative IC50 (BT-474 [13]; 4-OH-tamoxifen in medium 1 µM) | relative IC50 (MCF-7 Tam1 [14]) | relative IC50 (MCF-7 [15]; 4-OH-tamoxifen in medium 0 µM) | relative IC50 (T-47D Tam1 [16]) | relative IC50 (T-47D [17]; 4-OH-tamoxifen in medium 0 µM) | relative IC50 (T-47D [17]; 4-OH-tamoxifen in medium 1 µM) | relative IC50 (ZR-75-1 Tam1 [18]) | relative IC50 (ZR-75-1 Tam2 [19]) | relative IC50 (ZR-75-1 [20]; 4-OH-tamoxifen in medium 0 µM) | relative IC50 (ZR-75-1 [20]; 4-OH-tamoxifen in medium 1 µM)
0.034: drug sensitivity score (MCF-7 [5]; 4-OH-tamoxifen in medium 1 µM)
0.114: drug sensitivity score (T-47D Tam2)

CC(C)C[C@H](NC(=O)[C@@H](COC(C)(C)C)NC(=O)[C@H](Cc1ccc(O)cc1)NC(=O)[C@H](CO)NC(=O)[C@H](Cc1c[nH]c2ccccc12)NC(=O)[C@H](Cc1cnc[nH]1)NC(=O)[C@@H]1CCC(=O)N1)C(=O)N[C@@H](CCCNC(=N)N)C(=O)N1CCC[C@H]1C(=O)NNC(N)=O [Goserelin acetate]
0: drug sensitivity score (BT-474 Tam1 [1]) | drug sensitivity score (BT-474 Tam2 [2]) | drug sensitivity score (BT-474 [3]; 4-OH-tamoxifen in medium 0 µM) | drug sensitivity score (BT-474 [3]; 4-OH-tamoxifen in medium 1 µM) | drug sensitivity score (MCF-7 Tam1 [4]) | drug sensitivity score (MCF-7 [5]; 4-OH-tamoxifen in medium 0 µM) | drug sensitivity score (MCF-7 [5]; 4-OH-tamoxifen in medium 1 µM) | drug sensitivity score (T-47D Tam1 [6]) | drug sensitivity score (T-47D [7]; 4-OH-tamoxifen in medium 0 µM) | drug sensitivity score (T-47D [7]; 4-OH-tamoxifen in medium 1 µM) | drug sensitivity score (ZR-75-1 Tam1 [8]) | drug sensitivity score (ZR-75-1 Tam2 [9]) | drug sensitivity score (ZR-75-1 [10]; 4-OH-tamoxifen in medium 0 µM) | drug sensitivity score (ZR-75-1 [10]; 4-OH-tamoxifen in medium 1 µM)
0.105: drug sensitivity score (T-47D Tam2)
> 10 µM: relative IC50 (BT-474 Tam1 [11]) | relative IC50 (BT-474 Tam2 [12]) | relative IC50 (BT-474 [13]; 4-OH-tamoxifen in medium 0 µM) | relative IC50 (BT-474 [13]; 4-OH-tamoxifen in medium 1 µM) | relative IC50 (MCF-7 Tam1 [14]) | relative IC50 (MCF-7 [15]; 4-OH-tamoxifen in medium 0 µM) | relative IC50 (MCF-7 [15]; 4-OH-tamoxifen in medium 1 µM) | relative IC50 (T-47D Tam1 [16]) | relative IC50 (T-47D [17]; 4-OH-tamoxifen in medium 0 µM) | relative IC50 (T-47D [17]; 4-OH-tamoxifen in medium 1 µM) | relative IC50 (ZR-75-1 Tam1 [18]) | relative IC50 (ZR-75-1 Tam2 [19]) | relative IC50 (ZR-75-1 [20]; 4-OH-tamoxifen in medium 0 µM) | relative IC50 (ZR-75-1 [20]; 4-OH-tamoxifen in medium 1 µM)

CCCCC/C=C/C=C1/C(=O)C=C[C@@H]1C/C=C\CCCC(=O)O [15D-PGJ2]
> 0.8 µM: relative IC50 (BT-474 Tam1 [11]) | relative IC50 (BT-474 Tam2 [12]) | relative IC50 (BT-474 [13]; 4-OH-tamoxifen in medium 0 µM) | relative IC50 (BT-474 [13]; 4-OH-tamoxifen in medium 1 µM) | relative IC50 (MCF-7 Tam1 [14]) | relative IC50 (MCF-7 [15]; 4-OH-tamoxifen in medium 0 µM) | relative IC50 (MCF-7 [15]; 4-OH-tamoxifen in medium 1 µM) | relative IC50 (T-47D Tam1 [16]) | relative IC50 (T-47D [17]; 4-OH-tamoxifen in medium 0 µM) | relative IC50 (T-47D [17]; 4-OH-tamoxifen in medium 1 µM) | relative IC50 (ZR-75-1 Tam1 [18]) | relative IC50 (ZR-75-1 Tam2 [19]) | relative IC50 (ZR-75-1 [20]; 4-OH-tamoxifen in medium 0 µM) | relative IC50 (ZR-75-1 [20]; 4-OH-tamoxifen in medium 1 µM)
0.598: drug sensitivity score (T-47D Tam2)
0: drug sensitivity score (BT-474 Tam1 [1]) | drug sensitivity score (BT-474 Tam2 [2]) | drug sensitivity score (BT-474 [3]; 4-OH-tamoxifen in medium 0 µM) | drug sensitivity score (BT-474 [3]; 4-OH-tamoxifen in medium 1 µM) | drug sensitivity score (MCF-7 Tam1 [4]) | drug sensitivity score (MCF-7 [5]; 4-OH-tamoxifen in medium 0 µM) | drug sensitivity score (MCF-7 [5]; 4-OH-tamoxifen in medium 1 µM) | drug sensitivity score (T-47D Tam1 [6]) | drug sensitivity score (T-47D [7]; 4-OH-tamoxifen in medium 0 µM) | drug sensitivity score (T-47D [7]; 4-OH-tamoxifen in medium 1 µM) | drug sensitivity score (ZR-75-1 Tam1 [8]) | drug sensitivity score (ZR-75-1 Tam2 [9]) | drug sensitivity score (ZR-75-1 [10]; 4-OH-tamoxifen in medium 0 µM) | drug sensitivity score (ZR-75-1 [10]; 4-OH-tamoxifen in medium 1 µM)
